Data as given in the METLIN SMRT retention time set (Domingo-Almenara et al. 2019).

Test: gradient 5% acetonitrile 3 min, to 50% in 2 min, to 85% in 15 min, held 3 min, 100 µL/min
Conditions: column: Zorbax Extend-C18 2.1 x 50 mm; eluents: water / acetonitrile, 0.1% formic acid
Method in brief: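 A Zorbax Extend-C18 column (2.1 × 50 mm, 1.8 μm) run at 100 μL/min with water and acetonitrile, both containing 0.1% formic acid, separated mixtures of ~100 pure standards. The HPLC was coupled to a quadrupole time-of-flight mass spectrometer operated in positive and negative ionization mode, with dead and dwell volumes of 40 μL and 900 μL. Each retention time was taken from a computationally picked adduct peak that was then manually inspected.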

SMILES | RP-LC retention time [s]
Cc1cc(NC(=O)C2CCCN(S(=O)(=O)c3cc(-c4noc(C5CCCC5)n4)cs3)C2)no1 (configuration not stated) | 1110
COc1ccc(OC)c(NC(=O)CCc2c(C)nn(-c3cc(N(C)C)ncn3)c2C)c1 | 822
COCCOc1ccc2c(n1)CCN(C(=O)NC1CCCC1)C2 | 724
Cc1cc(-c2ccc(NC(=O)c3cccs3)c(C)c2)ccc1NC(=O)c1ccsc1 | 878
CCN(CC)C(=O)c1ccc2c(c1)N(CC(=O)NC1CCCCC1)C(=O)CO2 | 724
C=CCn1c(=O)c2ccccc2n(Cc2nc(-c3ccc(C)cc3)no2)c1=O | 1070
NC(CO)(CO)CCc1ccc(Sc2cccc(OCc3ccccc3)c2)cc1Cl | 837
COc1cccc(NC(=O)N2CCC3(C2)C(=O)Nc2ccc(OC)cc23)c1 (configuration not stated) | 701
Cc1ccc(NC(=O)NCC2(N3CCOCC3)CCOC2)cc1C (configuration not stated) | 615
CC(C)C(=O)N1CCC(c2nc(CNC(=O)C3CCC3)cs2)CC1 | 662
COCCC1CCOC2(CCN(C(=O)C3CCN(C(C)=O)CC3)CC2)C1 (configuration not stated) | 646
Cc1ccc(-c2noc(Cc3nnc(-c4cc(F)cc(F)c4)o3)n2)cc1C | 1170
Cn1nc2c(c1NC(=O)COc1ccc(Cl)cc1Cl)CCC2 | 815
COc1ccc(C2=NC3(CCN(C(=O)c4ccc(OC)cc4OC)CC3)NC2=O)cc1 | 776
CCN1c2cc(F)ccc2C(=O)NC12CCN(C(=O)c1ccc(OC)cc1)CC2 | 780
COC(=O)c1ccc(N2Cc3cc(Cl)ccc3OCC2=O)cc1 | 877
Cn1c(SCCC(=O)O)nnc1-c1cccnc1 | 515
COc1cccc(C(=O)Nc2c3c(nn2C(C)(C)C)CS(=O)(=O)C3)c1 | 752
COc1ccc2c(c1)C1(CCN(S(=O)(=O)c3cccs3)C1)C(=O)N2C (configuration not stated) | 871
COc1ccc(CN2CCC3(CC2)CC(O)CCO3)cc1 (configuration not stated) | 564
CC1CCCN(c2nc(C(=O)NC(C)C)cs2)C1 (configuration not stated) | 1020
Cc1cc(Cl)ccc1S(=O)(=O)N1CCc2c(c(CN3CCCC3)nn2C)C1 | 679
COc1cncc(C(=O)Nc2cc(F)cc(F)c2)c1 | 797

Now from value to compound:

RP-LC retention time [s] | SMILES
775 | CCOc1ccc(OCC)c(NC(=O)C2CCCN(C(=O)c3cc(-c4ccccn4)n[nH]3)C2)c1 (configuration not stated)
760 | Cc1ccccc1NC(=O)C1CCN(S(=O)(=O)c2cc(C(=O)N3CCCC3)cs2)CC1
667 | CN(C)CCNC(=O)C1CCN(c2nc3ccc(-c4ccccc4)nc3s2)CC1
822 | CCOc1ccc(CC(=O)N2CCCC2c2cc(C)on2)cc1 (configuration not stated)
720 | O=C(c1c(F)cccc1F)N1CCN=C1N1CCN(c2ccccc2F)CC1
741 | COc1ccc(CNC(=O)C2(C)Cn3cnc(C(=O)N4CCc5ccccc54)c3C(=O)N2C2CC2)cc1 (configuration not stated)
708 | O=C(/C=C/c1ccccc1)Nc1cccc(-c2nnc3n2CCCC3)c1
574 | COC(=O)N1CCN(CCNC(=O)Cc2cccc3ccccc23)CC1
955 | Cc1ccc(S(=O)(=O)N2CCC(C(=O)NCCc3csc(-c4cccs4)n3)CC2)c(C)c1
668 | COC(=O)c1ccc2c(=O)n(Cc3ccc(F)cc3)c(N3CCN(C)CC3)nc2c1
788 | COc1ccc(OC)c(NC(=O)NC2CCN(c3ccccc3)C2=O)c1 (configuration not stated)
589 | CN(C)CCNC(=O)C1CCN(c2ccc3nnc(-c4ccccc4Cl)n3n2)CC1
659 | Cc1cccc(S(=O)(=O)Nc2ccc(-c3cn4cccc(C)c4n3)cc2)c1
620 | Cc1cc(NC(=O)CSc2ccc3nnc(-c4cccs4)n3n2)no1
